Data from patent US5849326A, “Method for treating neuronal diseases via administration of 2-acylaminopropanol derivatives” (Seikagaku Corporation, priority 1993, dated 1998).

Key:
[1] = target: T1, GlcCer (glucosylceramide) synthase (Rattus norvegicus, UniProt Q9R0E0); experiment: Enzyme activity in treated cerebral cortex culture: GlcCer synthase; format: cell-based; settings: culture treated with 15 μM for 40 hours; read-out: Accelerating activity when enzyme activity of control is defined as 100%: GlcCer-synthase
T1 construct: primary culture of cerebral cortex tissue specimens of Wister albino rats; endogenous in cells; host or cells: primary culture of rat (Wistar) cerebral cortex, sonicated after 40 h with compound
T1 sequence (Q9R0E0 1-394): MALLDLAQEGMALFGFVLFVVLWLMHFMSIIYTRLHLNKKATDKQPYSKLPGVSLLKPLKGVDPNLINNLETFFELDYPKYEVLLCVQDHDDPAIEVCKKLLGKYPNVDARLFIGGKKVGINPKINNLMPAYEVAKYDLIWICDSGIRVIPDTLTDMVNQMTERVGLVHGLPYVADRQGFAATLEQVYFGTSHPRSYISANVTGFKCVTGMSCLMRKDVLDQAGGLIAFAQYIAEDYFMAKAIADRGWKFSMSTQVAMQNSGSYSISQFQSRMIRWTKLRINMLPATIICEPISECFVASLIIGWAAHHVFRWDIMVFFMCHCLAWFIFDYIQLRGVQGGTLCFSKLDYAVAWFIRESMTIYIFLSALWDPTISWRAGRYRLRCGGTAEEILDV
Method: After the mixture was cultured for 40 hours, the resulting culture was harvested and pulverized in a homogenized buffer (50 mM Hepes, 0.32M sucrose) by using a chip type sonicator to prepare an enzyme source.
After ^3 H-GlcCer which was a reaction product was extracted with t-butyl methyl ether, the extract was concentrated and evaporated to dryness, and its radioactivity was measured.

[2] = test system: explants; experiment: Neurite-extending activity in explants (Example 6); format: cell-based; settings: cultured for 40 hours, FIG. 5
Method: 1.6×10^5 cells/well of explants were sowed in a plate with 24 wells containing a DMEM medium. […] After the mixture was cultured for 40 hours, the resulting culture was fixed and then dyed with Coomassie, and nervous fibers extended to have a length which was longer than a diameter of […] were counted.

CCCCCCCCCC(=O)N[C@@H](CN1CCOCC1)[C@@H](O)c1ccccc1 [L-threo-PDMP, 1-phenyl-2-decanoylamino-3-morpholino-1-propanol]
enzyme activity relative to control at 15 µM [1]: 122% | concentration at which extension of neurites was the largest [2]: 15 µM | minimal effective concentration ([2]; read-out: concentration at which extension of neurites was observed): ≥ 5 µM
